Results on five substances are retold here after paper PMC7374640 (Nature structural & molecular biology, 2020).

In assay [1] the test system is insulin receptor. The following applies: cited from earlier work.
The target of assay [2] is human insulin receptor, isoform B (hIR, IR-B) (human) (UniProt P06213).
For assay [3] the following is noted: cited from earlier work.

With “des-hexapeptide(B25-B30)-[PheB24-α-carboxamide]insulin”, the “receptor affinity relative to native insulin (fold lower)” value in assay [1] was ~ 20 fold.
In turn, DOI with TyrB20 substitution (peptide) registered a bioactivity (insulin receptor activation assay), fold increase against DOI in assay [2] of 5 fold.
Regarding “des-heptapeptide(B24-B30)-[GlyB23-α-carboxamide]insulin”, in assay [1], the “receptor affinity relative to native insulin (fold lower)” value is ~ 500 fold.
Consider “des-pentapeptide(B26-B30)-[PheB25-α-carboxamide]insulin”, for which the “receptor affinity relative to native insulin (fold lower)” value in assay [1] was “native-like”.
With “HisA8 human insulin: human insulin with ThrA8 substituted by histidine (literature)”, the “increase in potency on substitution of human insulin ThrA8 by histidine” value in assay [3] is reported as “three-fold”.
